According to US12329160B2, “Activated ferrate compositions” (THE TEXAS A & M UNIVERSITY SYSTEM, priority 2018, dated 2025):

What was measured:
[1] = Elimination of six pharmaceuticals by Fe^VI—S2O3^2− in lake water (Lake Bryan); assay type: physicochemical; settings: mixture 1.0 μM each, [S2O3^2−]:[Fe^VI] 0.125, Fe^VI 150.0 μM, pH 8.0, 30 seconds
Procedure: (§1) The contaminants are: carbamazepine (CMZ), diclofenac (DCF), enrofloxacin (ENR), propranolol (PPN), sulfadimethoxine (SMX), and trimethoprim (TMP). Experimental conditions: [Each contaminant]0 in mixture of samples=1.0 μM, [Fe^VI]0:[Total contaminants]=25:1, [S2O3^2−]0:[Fe^VI]0=0.125, [Fe^VI]0=150.0 μM, [S2O3^2−]0=18.75 μM, pH=8.00±0.05, reaction time=30 s).
(§2) The stock solutions of these contaminants (10.0 μM) were prepared in 10.0 mM Na2HPO4, and diluted using the same buffer solution before the removal experiments. […] Solutions of Fe^VI were prepared by adding K2FeO4 powders to 5.0 mM Na2HPO4/1.0 mM Na2B4O7.10H2O buffer solution. The concentrations of Fe^VI were quantitatively measured using an UV-visible spectrometer at a wavelength of 510 nm with a molar absorption coefficient of ε510 nm=1150 M^−1 cm^−1: The pH value of the contaminant solutions was adjusted to 7.50 via the addition of diluted H3PO4 before mixing with Fe^VI solution to achieve the desired reaction pH at 8.00±0.04. Methanol and phosphoric acid (85%) of high performance liquid chromatography (HPLC) grade were used in testing. 5,5-dimethyl-1-pyrroline-N-oxide (DMPO) was used as the spin trap reagent for identifying the possible reactive inorganic radicals (e.g., .OH and/or SO4.^−) in the oxidation system. All the other chemicals (e.g., hydroxylamine and permanganate) were provided from commercial sources and used without further purification. Two kinds of natural water samples were individually obtained from Brazos River (N 30°42′33″, E 96°28′5″, College Station, Texas) and Lake Bryan (N 30°33′30″, E 96°25′25″, Bryan, Texas). […] These real water samples were filtered through 0.45 μm hydrophilic PVDF membrane to remove the insoluble particles before spiking the contaminant mixtures (1.0 μM for each compound). 20.0 mM borate buffer was used to stabilize the solution pH of the real waters at 8.00±0.04. All the other solutions were prepared using the ultrapure water (resistivity >18 MΩ cm^−1).
(§3) Experiments were conducted in a series of 100 mL glass jars under constant stirring rate (400 rpm) with a magnetic stirrer. Oxidation of each contaminant or their mixtures by Fe^VI with or without S2O3^2− was initiated by mixing equal solution volumes of 10 mL, and the final reaction solutions were kept at 8.00±0.04. The concentration of Fe^VI was maintained at 100.0 μM, and the ratios of [S2O3^2−]:[Fe^VI] in the system were varied from 0 to 5.0 for aqueous removal of TMP (5.0 μM). […] After 30 seconds of oxidation, 20.0 μL NH2OH solution (1 M) was added to quench the reactions. Samples were transferred into high performance liquid chromatography (HPLC) vials, and were subsequently analyzed using the HPLC method. Similar experiments using TMP as a target contaminant were also performed by replacing Fe^VI with Mn^VII or chlorine under the same conditions. All experiments were carried out at room temperature, and were at least in triplicates.
For the chromatographic separation of six contaminant mixtures (CMZ, DCF, ENR, PPN, SMX, and TMP), a solvent gradient method was used with flow rate of 0.8 mL/min. This method started with 35% B (0-7.5 min), followed by 35% B to 55% B (7.5-10.5 min), 55% B to 70% B (10.5-15.5 min), 70% B to 90% B (15.5-18.5 min), 90% B (18.5-25.0 min), 90% B to 35% B (25.0-25.5 min) and post-equilibration at 35% B (25.5-33.0 min).

[2] = Oxidation of individual organic contaminants by Fe^VI with or without S2O3^2− in buffered ultrapure water, HPLC; assay type: physicochemical; settings: for partial oxidation by Fe^VI without S2O3^2−: ratio 25:1 [Fe^VI]:[contaminants], Fe^VI 100.0 μM, pH 8.00, 30 seconds
Procedure: To test liquid ferrate solutions using second approach, batch experiments were conducted in a series of 100 mL glass jars under constant stirring rate (400 rpm) with a magnetic stirrer. Oxidation of each micropollutant or their mixtures by Fe^VI with or without S2O3^2− was initiated by mixing equal solution volumes of 10 mL, and the final reaction solutions were kept at 8.00±0.04.
as §2
as §3, with “conditions.” for “conditions. All experiments were carried out at room temperature, and were at least in triplicates.”

[3] = pH 8.0; cited from earlier work
[4] = Elimination of six pharmaceuticals by Fe^VI—S2O3^2− in river water (Brazos River); assay type: physicochemical; settings: mixture 1.0 μM each, [S2O3^2−]:[Fe^VI] 0.125, Fe^VI 150.0 μM, pH 8.0, 30 seconds
Procedure: as §1
The stock solutions of these contaminants (10.0 μM) were prepared in 10.0 mM Na2HPO4, and diluted using the same buffer solution before the removal experiments. Potassium ferrate (K2FeO4, purity >90%) was prepared using a wet chemical synthesis method. Solutions of Fe^VI were prepared by adding K2FeO4 powders to 5.0 mM Na2HPO4/1.0 mM Na2B4O7.10H2O buffer solution. The concentrations of Fe^VI were quantitatively measured using an UV-visible spectrometer at a wavelength of 510 nm with a molar absorption coefficient of ε510 nm=1150 M^−1 cm^−1: The pH value of the contaminant solutions was adjusted to 7.50 via the addition of diluted H3PO4 before mixing with Fe^VI solution to achieve the desired reaction pH at 8.00±0.04. […] No test contaminants were detected in these waters, and the basic physico-chemical parameters are pH, 8.36, UV254, 0.071 and UV400, 0.006 for river water; and pH, 9.43, UV254, 0.202, and UV400, 0.017 for lake water. […]

Compound	removal by Fe^VI—S2O3^2− in lake water [1]	partial oxidation by Fe^VI without S2O3^2− [2] [%]	k, reactivity of Fe^VI with DMSO [3]	removal by Fe^VI—S2O3^2− in river water [4]	oxidation of TMP by Fe^VI—S2O3^2− ([2]; molar ratio [S2O3^2−]:[Fe^VI] 0.125, TMP 5.0 μM, Fe(VI) 100.0 μM, pH 8.0, 30 seconds) [%]	elimination of TMP by Fe^VI—S2O3^2− ([2]; molar ratio [S2O3^2−]:[Fe^VI] 5.0, TMP 5.0 μM, Fe(VI) 100.0 μM, pH 8.0, 30 seconds)	oxidation of TMP by Fe^VI ([2]; without S2O3^2−, TMP 5.0 μM, Fe(VI) 100.0 μM, pH 8.0, quenched after 30 seconds, oxygenated)
COc1cc(NS(=O)(=O)c2ccc(N)cc2)nc(OC)n1 [SMX, Sulfadimethoxine]	about 80%	47.27					
Potassium ferrate [Fe^VI]			about 1 M^−1 s^−1				
CCN1CCN(c2cc3c(cc2F)c(=O)c(C(=O)O)cn3C2CC2)CC1 [ENR, Enrofloxacin]	about 50%	41.02		about 80%			
O=C(O)Cc1ccccc1Nc1c(Cl)cccc1Cl [DCF, Diclofenac]	about 80%	20.85					
COc1cc(Cc2cnc(N)nc2N)cc(OC)c1OC [TMP, Trimethoprim]	about 80%	22.04			100	about 4%	about 16%
CC(C)NCC(O)COc1cccc2ccccc12 (stereo not drawn) [PPN, Propranolol]	about 80%	32.46					
NC(=O)N1c2ccccc2C=Cc2ccccc21 [CMZ, Carbamazepine]	about 50%	25.11		about 80%			
